Values of other authors in patent publication US20250325531A1, “TREATMENT OF SYSTOLIC DYSFUNCTION” (MyoKardia, Inc., priority 2024, published 2025).

System: healthy volunteers / HFrEF
Settings: high doses; correlated with increase in SET; cited from earlier work

Structure (SMILES): COC(=O)N1CCN(Cc2cccc(NC(=O)Nc3ccc(C)nc3)c2F)CC1 [omecamtiv mecarbil]
- ischemia in healthy volunteers: resulted in ischemia
